Here are results for 5 compounds from patent US20080214398A1, “Herbicidal activities of combinations of sodium azide with sulfur containing and other deactivating compounds” (priority 2005, published 2008).

Molecules are shown by their SMILES. “Also recorded” adds a separate entry of the source. Where two headings read alike, the source gives them in different places.

In data set [1] the test system is annual morningglory (Ipomoea spp.). Format: in vivo. An excerpt: The effects on herbicidal activity of combinations of SEP 100 (Na azide) with metam Na, Na thiosulfate, methyl disulfide and the herbicide EPTC (Eptam 7E, Eradicane 6.7E) were studied in greenhouse experiments. In a first experiment SEP 100 was applied by drenching (1″ acre water) at 150 lbs a.i./A to pots (4 inch diam; PVC) containing each 2.2 pounds of silt loam (pH 6.2; org. matter <1.0%) from a cotton field. Immediately after treatment each pot was covered with a clear polyethylene bag (1.5 mil). The bags were removed 4 days after, and additional applications were drenched in with: Vapam HL, at 120 gal/A; EPTC at 8 and 10 lbs ai/A; Na thiosulfate at 200 and 300 lbs ai/A; and methyl disulfide at 300 lbs ai/A. Pots were again covered with the bags for 3 days after which they were removed and pots planted with annual morningglory (Ipomoea spp.; 25 seed/pot). Some pots received only SEP 100 and others received water only. Each treatment was represented by 7 pots (experimental units) arranged in a randomized complete block design on a bench. The number of plants in each pot was determined at 10, 13, and 26 days after application of SEP 100. Momingglory plant tops were collected from each pot 33 days after initiation of the experiment and their fresh weight was determined.

For data set [2], the system named is Morningglory (Ipomoea spp.). Format: in vivo. An excerpt: Compounds: Sodium azide, metam sodium (Vapam HL), EPTC, sodium thiosulfate, and methyl disulfide were delivered in aqueous solutions or emulsions (5% of SEP 100 for sodium azide; 5% for Vapam; 0.25% for EPTC, 2.5% for sodium thiosulfate; 2.5% for methyl disulfide) prepared immediately before use by diluting in demineralized water while stirring with a magnetic stirrer.
Sources: SEP 100 from American Pacific Corp., metam sodium as Vapam HL (32, 7% a.i.) from AMVAC, EPTC from Gowen, sodium thiosulfate and methyl disulfide from Aldrich.
Rates: Metam sodium at 163.5 mgs a.i./kg soil-equivalent to 0, and 327 lbs a.i./acre (120 gal Vapam HL/A). Sodium azide at 75 mgs a.i./kg soil equivalent to 150 lbs a.i./A, sodium thiosulfate at 200 and 300 lbs/A; EPTC at 8 and 10 lbs/A, and methyl disulfide at 300 lbs/A.
All different possible combinations of sodium azide with the other deactivating compounds and their corresponding rates were included in the experiment together with the appropriate controls.
Application Method and Procedure: Each treatment was delivered by drenching in 100 mls aqueous volume onto the soil surface in pots (10-cm diam; PVC) containing 1 kg soil. The soil was from a cotton field (silt loam; pH 6.2; CEC<10 meq/100 gm soil; org. matter <1.0%). Sodium azide was applied on day one, and the other compounds four days later. Immediately after treatment the pots were covered by a thick (1.5 mil) clear low density polyethylene bag held tight against the outer wall of the pot by a rubber band. Three days after application of “deactivator compounds” the bags were removed and the pots were planted with morningglory seed (25 seed/pot). Counts were taken from each pot (experimental unit) at 10, 13, and 26 days after application of sodium azide. Morningglory plant tops were collected from each pot 33 days after initiation of the experiment and fresh weights were determined.
Major Pests: Morningglory (Ipomoea spp.)
Experimental Design: Randomized complete block with seven replications/treatment.
Statistical Analyses: Anova and Fischer's least significant difference (flsd) at p 0.05. Regression analyses.

A further data set concerns warm season turf species. Particulars: cited from earlier work.
Data set [3] concerns morningglory. Put plainly: Example 2 greenhouse pot experiment, fixed Vapam HL rate with SEP 100 rates. Format: in vivo, Ipomoea spp. The note with it: Vapam HL 60 gal/A on soil treated with SEP 100 40-120 lbs a.i./A. An excerpt:
The effects on herbicidal activity of combinations of SEP 100 (Na azide) with metam Na, Na thiosulfate, methyl disulfide and the herbicide EPTC (Eptam 7E, Eradicane 6.7E) were studied in greenhouse experiments. In a first experiment SEP 100 was applied by drenching (1″ acre water) at 150 lbs a.i./A to pots (4 inch diam; PVC) containing each 2.2 pounds of silt loam (pH 6.2; org. matter <1.0%) from a cotton field. Immediately after treatment each pot was covered with a clear polyethylene bag (1.5 mil). […] The number of plants in each pot was determined at 10, 13, and 26 days after application of SEP 100. Momingglory plant tops were collected from each pot 33 days after initiation of the experiment and their fresh weight was determined.
A second experiment explored the interaction between a fixed rate of Vapam HL (60 gal/A) and applications of SEP 100 in the 40-120 lbs a.i./A range. The methods and procedure followed were as for the first experiment except that weed counts were taken at 13 and 17 days after application and plant top weights were determined 32 days after initiation of the experiment.

For data set [4], the system named is morningglory. An excerpt: Compounds: sodium azide and metam sodium (Vapam HL) were delivered in aqueous solutions (1.0% of SEP 100 for sodium azide; 5% for Vapam) prepared immediately before use by diluting in demineralized water while stirring with a magnetic stirrer.
Source: SEP 100 from American Pacific Corp., and metam sodium as Vapam HL (32, 7% a.i.) from AMVAC.
Rates: Metam sodium at 0, and 82 mgs a.i./kg soil-equivalent to 0, and 60 gal/A. Sodium azide at 0, 20, 40 and 60 mgs a.i./kg soil equivalent to 0, 40, 80, and 120 lbs a.i./A, respectively. Each metam sodium rate was applied to soil in combination with each sodium azide dose.

[5] abbreviates: applied 4 days after sodium azide 150 lbs a.i./A, metam sodium 327 lbs a.i./acre, sodium thiosulfate 200 and 300 lbs/A, methyl disulfide 300 lbs/A, 10, 13, 26 days.

As to `CSSC` [methyl disulfide], in data set [1] (applied 4 days after SEP 100 150 lbs a.i./A, Vapam HL 120 gal/A, Na thiosulfate 200 and 300 lbs ai/A, methyl disulfide 300 lbs ai/A, counts at 10, 13, 26 days), the “effect on herbicidal activity of Na azide (number of morningglory plants, FIG. 1A)” value was “little effect”. For the same compound, the “effect on herbicidal activity of sodium azide (number of morningglory plants per pot, FIGS. 3A-3C)” value in data set [2] (setting [5]) is “inconclusive”.

For `CCCN(CCC)C(=O)SCC` [EPTC, S-ethyl dipropylthiocarbamate], the “herbicidal activity against morningglory” value in data set [1] (EPTC 8 and 10 lbs ai/A, SEP 100 150 lbs a.i./A) was “strongly herbicidal”; in data set [2] (EPTC 8 and 10 lbs/A, sodium azide 150 lbs a.i./A), “strongly herbicidal”.

On to `[N-]=[N+]=[N-]` [sodium azide], for which the “plant back interval required for successful establishment” value in the data set on warm season turf species is 3-4 weeks.

Regarding `CNC(=S)S` [metam sodium, sodium methyl dithiocarbamate], the “effect on morningglory top weights (FIG. 2B)” value in the data set on morningglory [3] (32 days) is given as “diminished herbicidal activity of sodium azide”. The “effect on herbicidal activity of Na azide (number of morningglory plants, FIG. 2A)” value in the data set on morningglory [3] (counts at 13 and 17 days) is “diminishes the herbicidal activity of sodium azide”. In addition, the “effect on herbicidal activity of sodium azide (number of morningglory plants per pot, FIGS. 3A-3C)” value in data set [2] (setting [5]) was “significantly reduced the herbicidal activity of sodium azide; also recorded: nullified the herbicidal activity of sodium azide”. Moreover, the “morningglory growth / top weights (FIG. 3D)” value in data set [2] (sodium azide 150 lbs a.i./A, then metam sodium 327 lbs a.i./acre, 33 days) was “synergistic beneficial effects”. The “effect on morningglory top weights” value in the data set on morningglory [4] (metam sodium 60 gal/A on soil previously treated with sodium azide) is “synergistic beneficial effects”. In the data set with morningglory [4] (metam sodium 60 gal/A with sodium azide 0, 40, 80, 120 lbs a.i./A, 13, 17, 30 days), the “effect on herbicidal activity of sodium azide (number of morningglory plants per pot, FIGS. 4A-4C)” value is “nullified the herbicidal activity of sodium azide”.

Take `O=S([O-])([O-])=S.[Na+].[Na+]` [sodium thiosulfate]: the “effect on herbicidal activity of Na azide (number of morningglory plants, FIG. 1A)” value in data set [1] (in vivo) is reported as “little effect”. In data set [2] (in vivo), the “effect on herbicidal activity of sodium azide (number of morningglory plants per pot, FIGS. 3A-3C)” value is “inconclusive”.
